Test results as given in patent US9504671B2, “Pharmaceutical compositions of spiro-oxindole compound for topical administration and their use as therapeutic agents” (Xenon Pharmaceuticals Inc., priority 2010, dated 2016).
Where two headings read alike, the source gives them in different places.

Columns and labels:
[1] = solubility studies of COMPOUND A (UV spectrophotometry at 312 nm); assay type: physicochemical
Excerpt: The spiro-oxindole compound of the invention, particularly, COMPOUND A, is relatively lipophilic and has poor water solubility.
Attempts to improve the solubility of COMPOUND A for use in a topical pharmaceutical composition, preferably as an ointment, were undertaken using a variety of solubilization techniques. The aim was to conduct a thorough investigation of the use of various pharmaceutically acceptable excipients to maximize the solubility of COMPOUND A. A series of solubility studies, which were performed using standard solubility testing techniques, was therefore carried out to identify proper excipient(s) and/or excipient combinations for achieving the target dosage strength for COMPOUND A. The solubility of COMPOUND A in these studies was determined by UV spectrophotometry using COMPOUND A's UV absorbance wavelength at 312 nm.

sodium channel = test: guanidine influx assay disclosed in WO 06/110917; assay type: cell-based; conditions: read-out: IC50, inhibition of ion flux through a sodium channel
Excerpt: The IC50 (“Inhibitory Concentration—50%”) is a measure of the amount of compound required to achieve 50% inhibition of ion flux through a sodium channel, over a specific time period, in an assay of the invention.

[2] = tested on: CCI-induced neuropathic pain model; test: time course of efficacy in neuropathic pain model, Chronic Constriction Injury, von Frey; assay type: in vivo, Sprague-Dawley rats
Description: Neuropathic pain is characterized by spontaneous pain and stimulus-evoked allodynia and hyperalgesia. Pharmaceutical compositions of the invention were evaluated in Chronic Constriction Injury model using Sprague-Dawley rats as described below.
An approximately 3 cm incision was made through the skin and the fascia at the mid thigh level of a rat's left hind leg using a no. 10 scalpel blade. The left sciatic nerve was exposed via blunt dissection through the biceps femoris with care to minimize haemorrhagia. Four loose ligatures were tied along the sciatic nerve using four chromic gut sutures at intervals of 1 mm to 2 mm apart. The tension of the loose ligatures was tight enough to induce slight constriction of the sciatic nerve when viewed under a dissection microscope at a magnification of 4 fold. As sham controls, the right sciatic nerve was exposed and manipulated in the same manner as described above, except sutures were not tied onto the nerve. Antibacterial ointment was applied directly into the wound, and the muscle was closed using sterilized sutures. Betadine® was applied onto the muscle and its surroundings, followed by skin closure with surgical clips.
A painful neuropathy was allowed to develop for at least 14 days in the ipsilateral leg as determined by lower paw withdrawal thresholds to a mechanical stimulus. Only those with significant hyperalgesia, as determined by reduced threshold of paw withdrawal to the von Frey filament, measured in grams, were enrolled in the study.
The response thresholds of animals to tactile stimuli were measured using the Model 2290 Electrovonfrey anesthesiometer (IITC Life Science, Woodland Hills, Calif.). Animals were placed in an elevated Plexiglass enclosure set on a mire mesh surface. After 15 minutes of accommodation, a von Frey hair was applied perpendicularly to the plantar surface of the ipsilateral hind paws of the animals with sufficient force, measured in grams, to elicit a crisp response of the paw. The response indicated a withdrawal from the painful stimulus and constituted the efficacy endpoint. The force (in grams) required to elicit a crisp withdrawal response was recorded before dosing as a baseline measurement, and at multiple time points post-dosing.
Three days prior to baseline measurement, animals were anaesthetized under isoflurane and the whole of the ipsilateral hind legs, including the upper sciatic notch thigh area, ankle and foot, was shaved. The animals were then randomly assigned to one of 4 different test groups including a vehicle control group, a 5% (w/v) Lidocaine (Xylocaine®), and 2 pharmaceutical compositions of the invention comprising COMPOUND A at 4% (w/w) containing either 5% or 10% Transcutol® P. After baseline measurement, 100 mg of the test composition was applied on the entire shaved area. The animals were then placed in plastic tubes for at least 15 minutes, to prevent early removal/ingestion of drug. Subsequently, animals were placed in the Plexiglas enclosure 15 minutes before von Frey measurement at the respective time points. Von Frey withdrawal thresholds were measured as the mean of several independent determinations made within 1-2 minutes of each other on the affected paw of each animal at 0.5, 1 and 2 hours post dosing.

[3] = systemic plasma concentration after topical or oral dosing in CCI rats (HPLC/MS/MS); assay type: in vivo, male Sprague Dawley rats; conditions: 8% (w/w) topical vs 25 mg/Kg oral, blood 10-15 minutes after efficacy time points, p<0.0001
Description: Blood samples were taken from the same animals immediately after withdrawal threshold measurements using the following procedure at approximately 10-15 minutes after their respective efficacy time points. The rats were bled by jugular vein puncture while under anaesthesia. The time at which each blood sample was drawn, relative to the time of dosing, was recorded. Each blood sample (˜150 μL) was collected into a heparin-coated, labelled microvette tube containing 10 μL of heparin (100 Units) and placed on ice immediately. The blood samples were centrifuged at 4° C. to separate the plasma. The plasma was transferred to labelled tubes and snap-frozen in liquid nitrogen for storage at −80° C. At the time of analysis, the plasma was thawed and extracted using solid phase extraction, and the plasma drug concentration was quantified by HPLC/MS/MS.

O=C1N(Cc2ccc(C(F)(F)F)o2)c2ccccc2[C@]12COc1cc3c(cc12)OCO3 [COMPOUND A, (S)-1′-{[5-(trifluoromethyl)furan-2-yl]methyl}spiro[furo[2,3-f][1,3]benzodioxole-7,3′-indol]-2′(1′H)-one]
solubility ([1]; aqueous solution with pH adjusted to 2, aqueous buffer, pH 2, 7.4 and 12, read-out: solubility on varying the pH of a solution): < 5 µg/mL
solubility ([1]; water, read-out: water solubility): < 5 µg/mL
IC50 (sodium channel): < 1 µM
paw withdrawal threshold, percent mean change from baseline (CFB) ([2]; 4% (w/w) in 5% Transcutol P composition, 100 mg applied, 0.5 hours post-dosing): +26.3%
paw withdrawal threshold, percent mean change from baseline (CFB) ([2]; 4% (w/w) in 5% Transcutol P composition, 1 hour post-dosing): +18.1%
paw withdrawal threshold, percent mean change from baseline (CFB) ([2]; 4% (w/w) in 10% Transcutol P composition, 100 mg applied, 0.5 hours post-dosing): +33.8%
paw withdrawal threshold, percent mean change from baseline (CFB) ([2]; 4% (w/w) in 10% Transcutol P composition, 1 hour post-dosing): +26.7%
duration of analgesic effects post-dosing ([2]; 4% (w/w) in 10% transcutol composition, from 0.5 hour): up to 2 hours
plasma level in topical dosage group lower than in oral dosage group (fold) [3]: ~20 ×
